# Assay results: patent publication US20230233690A1, “ANDROGEN RECEPTOR PROTEIN DEGRADERS” (THE REGENTS OF THE UNIVERSITY OF MICHIGAN, priority 2020, published 2023)
# Columns and labels:
# [1] = PK parameters in male ICR mice; assay type: in vivo
# Method: (§1) The pharmacokinetics (PK) of representative Compounds of the Disclosure were evaluated in mice or rats to provide an assessment of their oral bioavaibility. All animal experiments were performed under the guidelines of the University of Michigan Committee for Use and Care of Animals and using an approved animal protocol.
# [2] = test system: AR protein; experiment: Western blotting of AR protein degradation in MDA-MB-453 cells; assay type: cell-based; parameters: key: A: >90% degradation (24 hr treatment); B: >50% degradation but <90% (24 hr treatment); C: >10% degradation but <50% (24 hr treatment); D: No significant degradation (24 hr treatment); conditions: 24 hr treatment
# Method: The appropriate cell line, e.g., prostate cancer LNCaP, Vcap, or MDA-MB-453 cell line, was treated with Compounds of the Disclosure. The treated cells were lysed with RIPA buffer. The AR level in the cell lysates was examined by western blotting and a specific AR antibody (ab194196, Abcam, Cambridge, Mass. 02139) with concentration of 1:20,000. GAPDH was used as a loading control.
# (§2) Bands were quantified with ImageJ software. The relative numbers of each band obtained from normalization with its corresponding GAPDH level were compared with Prism 8 software. The DC50 values were produced from Prism 8, and the DC90 values were calculated with an equation=Bottom+(Top−Bottom)/(1+10^((Log EC50−X)*HillSlope) based on DC50 and Hillslope values.
# The amount of AR protein degradation in LNCaP, VCap, and MDA-MB-453 cells caused representative Compounds of the Disclosure at the concentrations indicated is presented in Table 4 and Table 5.
# [3] = PK parameters in male SD rats; assay type: in vivo; conditions: for AUC(0-t) / clearance / Vd / Cmax / half-life: rat, in vivo; for clearance: read-out: Cl-obs; for Vd: read-out: Vss
# Method: as §1
# [4] = target: T1, AR protein (Homo sapiens, UniProt P10275); experiment: Western blotting of AR protein degradation in VCaP cells; assay type: cell-based
# T1 construct: endogenous in cells; host or cells: VCaP
# T1 sequence (P10275 1-920): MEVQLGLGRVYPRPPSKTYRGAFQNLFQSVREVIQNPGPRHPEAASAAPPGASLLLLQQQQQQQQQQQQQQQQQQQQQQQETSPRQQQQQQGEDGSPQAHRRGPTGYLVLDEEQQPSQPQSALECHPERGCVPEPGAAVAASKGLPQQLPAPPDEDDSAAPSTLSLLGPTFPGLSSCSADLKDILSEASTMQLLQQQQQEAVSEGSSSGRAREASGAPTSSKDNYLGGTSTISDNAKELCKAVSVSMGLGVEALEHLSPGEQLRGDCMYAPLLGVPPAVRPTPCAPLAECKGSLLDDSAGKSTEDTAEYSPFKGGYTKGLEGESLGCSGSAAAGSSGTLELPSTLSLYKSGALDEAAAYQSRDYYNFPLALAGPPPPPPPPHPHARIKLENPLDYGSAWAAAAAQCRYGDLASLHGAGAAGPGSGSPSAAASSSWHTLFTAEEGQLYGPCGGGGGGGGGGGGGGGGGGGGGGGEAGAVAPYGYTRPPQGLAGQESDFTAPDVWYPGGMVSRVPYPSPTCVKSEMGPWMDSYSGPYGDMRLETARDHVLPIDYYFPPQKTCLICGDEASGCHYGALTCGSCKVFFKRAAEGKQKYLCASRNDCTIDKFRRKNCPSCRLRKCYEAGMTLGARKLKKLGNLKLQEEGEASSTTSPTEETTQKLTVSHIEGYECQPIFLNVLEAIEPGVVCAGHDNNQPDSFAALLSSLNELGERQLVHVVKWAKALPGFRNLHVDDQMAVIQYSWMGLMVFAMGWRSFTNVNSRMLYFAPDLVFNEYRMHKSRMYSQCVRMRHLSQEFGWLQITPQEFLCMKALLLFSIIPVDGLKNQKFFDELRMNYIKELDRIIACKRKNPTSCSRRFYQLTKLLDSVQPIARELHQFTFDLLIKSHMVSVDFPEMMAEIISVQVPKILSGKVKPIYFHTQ
# Method: The treated cells were lysed with RIPA buffer. […] GAPDH was used as a loading control.
# as §2
# [5] = PK parameters in male mice (Table 9); assay type: in vivo
# Method: as §1
structure (smiles),measurement,setting,value
"CC1(C)[C@H](NC(=O)c2ccc(N3CCN(CC4CN(c5ccc6c(c5)C(=O)N(C5CCC(=O)NC5=O)C6=O)C4)CC3)cc2)C(C)(C)[C@H]1Oc1ccc(C#N)c(Cl)c1 (stereo partly shown) [Cpd. No. 112, N-((1r,3r)-3-(3-chloro-4-cyanophenoxy)-2,2,4,4-tetramethylcyclobutyl)-4-(4-((1-(2-(2,6-dioxopiperidin-3-yl)-1,3-dioxoisoindolin-5-yl)azetidin-3-yl)methyl)piperazin-1-yl)benzamide]",AUC(0-t),[1]; IV 2 mg/kg,11034.8 ng·h/mL
same,Cl-obs,[1]; IV 2 mg/kg,1.9 mL/min/kg
same,Vss,[1]; IV 2 mg/kg,2.7 L/kg
same,AUC(0-t),[1]; PO 5 mg/kg,20599.8 ng·h/mL
same,Cmax,[1]; PO 5 mg/kg,1389.4 ng/mL
same,F,[1]; PO 5 mg/kg,74.7%
same,T1/2,[1]; PO 5 mg/kg,12.0 h
"CC1(C)[C@H](NC(=O)c2ccc(N3CCC(CN4CCN(c5ccc6c(c5)C(=O)N(C5CCC(=O)NC5=O)C6=O)CC4)CC3)cc2)C(C)(C)[C@H]1Oc1ccc(C#N)c(Cl)c1 (stereo partly shown) [compound 190, N-((1r,3r)-3-(3-chloro-4-cyanophenoxy)-2,2,4,4-tetramethylcyclobutyl)-4-(4-((4-(2-(2,6-dioxopiperidin-3-yl)-1,3-dioxoisoindolin-5-yl)piperazin-1-yl)methyl)piperidin-1-yl)benzamide]",AUC(0-t),[1]; IV 1 mg/kg,2565 ng·h/mL
same,Cl-obs,[1]; IV 1 mg/kg,3.2 mL/min/kg
same,Vss,[1]; IV 1 mg/kg,6.8 L/kg
same,AUC(0-t),[1]; PO 3 mg/kg,2550.1 ng·h/mL
same,Cmax,[1]; PO 3 mg/kg,134.4 ng/mL
same,F,[1]; PO 3 mg/kg,33.1%
same,T1/2,[1]; PO 3 mg/kg,67.8 h
N#Cc1ccc(OC2CCC(Oc3ccc(C#CC4CCN(CC5CCN(c6ccc7c(c6)C(=O)N(C6CCC(=O)NC6=O)C7=O)CC5)CC4)cc3)CC2)cc1Cl (stereo not shown) [compound 51],AR protein degradation MDA-MB-453 10 nM,[2],D
same,AR protein degradation MDA-MB-453 100 nM,[2],D
"CC1(C)[C@H](NC(=O)c2ccc(N3CCC(N4CCN(c5ccc6c(c5)C(=O)N(C5CCC(=O)NC5=O)C6=O)CC4)CC3)cc2)C(C)(C)[C@H]1Oc1ccc(C#N)c(Cl)c1 (stereo partly shown) [compound 189, N-((1r,3r)-3-(3-chloro-4-cyanophenoxy)-2,2,4,4-tetramethylcyclobutyl)-4-(4-(4-(2-(2,6-dioxopiperidin-3-yl)-1,3-dioxoisoindolin-5-yl)piperazin-1-yl)piperidin-1-yl)benzamide]",AUC(0-t),[1]; IV 1 mg/kg,4333.7 ng·h/mL
same,Cl-obs,[1]; IV 1 mg/kg,2.2 mL/min/kg
same,Vss,[1]; IV 1 mg/kg,3.8 L/kg
same,AUC(0-t),[1]; PO 3 mg/kg,3127 ng·h/mL
same,Cmax,[1]; PO 3 mg/kg,207 ng/mL
same,F,[1]; PO 3 mg/kg,24%
same,T1/2,[1]; PO 3 mg/kg,12.4 h
N#Cc1ccc(O[C@@H]2CCC[C@@H](Oc3ccc(N4CCN(CC5CCN(c6ccc7c(c6)C(=O)N(C6CCC(=O)NC6=O)C7=O)CC5)CC4)cc3)C2)cc1Cl (stereo partly shown) [compound 55],AR protein degradation MDA-MB-453 100 nM,[2],C (>10% degradation but <50% (24 hr treatment))
"CC1(C)[C@H](NC(=O)c2ccc(N3CCN(C4CN(c5ccc6c(c5)C(=O)N(C5CCC(=O)NC5=O)C6=O)C4)CC3)cc2)C(C)(C)[C@H]1Oc1ccc(C#N)c(Cl)c1 (stereo partly shown) [Cpd. No. 113, N-((1r,3r)-3-(3-chloro-4-cyanophenoxy)-2,2,4,4-tetramethylcyclobutyl)-4-(4-(1-(2-(2,6-dioxopiperidin-3-yl)-1,3-dioxoisoindolin-5-yl)azetidin-3-yl)piperazin-1-yl)benzamide]",F,[1]; PO 5 mg/kg,62.2%
same,AUC(0-t),"[1]; mouse, in vivo, IV 2 mg/kg, read-out: AUC0-t",14600 ng·h/mL
same,clearance,"[1]; mouse, in vivo, IV 2 mg/kg, read-out: Cl-obs",1.7 mL/min/kg
same,Vd,"[1]; mouse, in vivo, IV 2 mg/kg, read-out: Vss",1.7 L/kg
same,half-life,"[1]; mouse, in vivo, PO 5 mg/kg",10.3 h
same,AUC(0-t),"[1]; mouse, in vivo, PO 5 mg/kg, read-out: AUC0-t",22700 ng·h/mL
same,Cmax,"[1]; mouse, in vivo, PO 5 mg/kg, read-out: Cmax",1820 ng/mL
same,F,[3]; PO 5 mg/kg,25.0%
same,AUC(0-t),[3]; IV 2 mg/kg,9140 ng·h/mL
same,clearance,[3]; IV 2 mg/kg,3.1 mL/min/kg
same,Vd,[3]; IV 2 mg/kg,2 L/kg
same,AUC(0-t),[3]; PO 5 mg/kg,5720 ng·h/mL
same,Cmax,[3]; PO 5 mg/kg,414 ng/mL
same,half-life,[3]; PO 5 mg/kg,10.4 h
N#Cc1ccc(O[C@@H]2CCC[C@@H](Oc3ccc(C4CCN(CC5CCN(c6cccc7c6C(=O)N(C6CCC(=O)NC6=O)C7=O)CC5)CC4)cc3)C2)cc1Cl (stereo partly shown) [compound 54],AR protein degradation MDA-MB-453 100 nM,[2],C (>10% degradation but <50% (24 hr treatment))
"CC1(C)[C@H](NC(=O)c2ccc(N3CCN(C4CCN(c5ccc6c(c5)C(=O)N(C5CCC(=O)NC5=O)C6=O)CC4)CC3)cc2)C(C)(C)[C@H]1Oc1ccc(C#N)c(Cl)c1 (stereo partly shown) [Cpd. No. 114, N-((1r,3r)-3-(3-chloro-4-cyanophenoxy)-2,2,4,4-tetramethylcyclobutyl)-4-(4-(1-(2-(2,6-dioxopiperidin-3-yl)-1,3-dioxoisoindolin-5-yl)piperidin-4-yl)piperazin-1-yl)benzamide]",AUC(0-t),[1]; IV 2 mg/kg,15758.8 ng·h/mL
same,Cl-obs,[1]; IV 2 mg/kg,1.7 mL/min/kg
same,Vss,[1]; IV 2 mg/kg,1.5 L/kg
same,AUC(0-t),[1]; PO 5 mg/kg,14587.7 ng·h/mL
same,Cmax,[1]; PO 5 mg/kg,980.1 ng/mL
same,F,[1]; PO 5 mg/kg,37.0%
same,T1/2,[1]; PO 5 mg/kg,11.2 h
same,F,[3]; PO 5 mg/kg,11.4%
same,AUC(0-t),[3]; IV 2 mg/kg,1190 ng·h/mL
same,clearance,[3]; IV 2 mg/kg,7.7 mL/min/kg
same,Vd,[3]; IV 2 mg/kg,2.5 L/kg
same,AUC(0-t),[3]; PO 5 mg/kg,4160 ng·h/mL
same,Cmax,[3]; PO 5 mg/kg,100 ng/mL
same,half-life,[3]; PO 5 mg/kg,8.9 h
N#Cc1ccc(O[C@H]2CC[C@H](Oc3ccc(C4CCN(CC5CCN(c6cccc7c6C(=O)N(C6CCC(=O)NC6=O)C7=O)CC5)CC4)cc3)CC2)cc1Cl (stereo partly shown) [compound 53],AR protein degradation MDA-MB-453 10 nM,[2],D
same,AR protein degradation MDA-MB-453 100 nM,[2],C (>10% degradation but <50% (24 hr treatment))
"CN(c1ccc(C#N)c(Cl)c1)[C@H]1CC[C@H](NC(=O)c2ccc(N3CCN(C4CCN(c5ccc6c(c5)C(=O)N(C5CCC(=O)NC5=O)C6=O)CC4)CC3)cc2)CC1 (stereo partly shown) [Cpd. No. 235, N-((1r,4r)-4-((3-chloro-4-cyanophenyl)(methyl)amino)cyclohexyl)-4-(4-(1-(2-(2,6-dioxopiperidin-3-yl)-1,3-dioxoisoindolin-5-yl)piperidin-4-yl)piperazin-1-yl)benzamide]",% AR protein degradation in VCaP Cells,[4]; 0.001 μM,94%
same,% AR protein degradation in VCaP Cells,[4]; 0.01 μM,99%
same,% AR protein degradation in VCaP Cells,[4]; 0.1 μM,99.9%
same,Vd,"[5]; ICR, mouse, in vivo, IV 1 mg/kg, read-out: Vss",2.64 L/kg
same,AUC(0-t),[5]; IV 1 mg/kg,3366 ng·h/mL
same,Cl,[5]; IV 1 mg/kg,4.5 mL/min/kg
same,T1/2,[5]; IV 1 mg/kg,7.6 h
same,AUC(0-t),[5]; PO 3 mg/kg,3001 ng·h/mL
same,Cmax,[5]; PO 3 mg/kg,256.1 ng/mL
same,T1/2,[5]; PO 3 mg/kg,7.0 h
same,Tmax,[5]; PO 3 mg/kg,4.7 h
same,F,[5]; PO 3 mg/kg vs IV 1 mg/kg,29%
N#Cc1ccc(O[C@H]2CC[C@H](Oc3ccc(C4CCN(CC5CCN(c6ccc7c(c6)C(=O)N(C6CCC(=O)NC6=O)C7=O)CC5)CC4)cc3)CC2)cc1Cl (stereo partly shown) [compound 52],AR protein degradation MDA-MB-453 10 nM,[2],D
same,AR protein degradation MDA-MB-453 100 nM,[2],D
"CC1(C)[C@H](NC(=O)c2ccc(N3CCN(CC4CCN(c5ccc6c(c5)C(=O)N(C5CCC(=O)NC5=O)C6=O)CC4)CC3)cc2)C(C)(C)[C@H]1Oc1ccc(C#N)c(Cl)c1 (stereo partly shown) [Cpd. No. 46, N-((1r,3r)-3-(3-chloro-4-cyanophenoxy)-2,2,4,4-tetramethylcyclobutyl)-4-(4-((1-(2-(2,6-dioxopiperidin-3-yl)-1,3-dioxoisoindolin-5-yl)piperidin-4-yl)methyl)piperazin-1-yl)benzamide]",AUC(0-t),[1]; IV 2 mg/kg,13298.5 ng·h/mL
same,Cl-obs,[1]; IV 2 mg/kg,1.2 mL/min/kg
same,Vss,[1]; IV 2 mg/kg,2.7 L/kg
same,AUC(0-t),[1]; PO 5 mg/kg,22360.5 ng·h/mL
same,Cmax,[1]; PO 5 mg/kg,1304.3 ng/mL
same,F,[1]; PO 5 mg/kg,67.3%
same,T1/2,[1]; PO 5 mg/kg,18.8 h
